As a reminder, the IC50 is the concentration that inhibits the measured activity by half.

Each structure is given as a SMILES string. Where a name gives a salt, the structure may show the parent alone.

Chain of human GLUT9 (Q9NRM0 other isoform, or with tags, fused parts or gaps): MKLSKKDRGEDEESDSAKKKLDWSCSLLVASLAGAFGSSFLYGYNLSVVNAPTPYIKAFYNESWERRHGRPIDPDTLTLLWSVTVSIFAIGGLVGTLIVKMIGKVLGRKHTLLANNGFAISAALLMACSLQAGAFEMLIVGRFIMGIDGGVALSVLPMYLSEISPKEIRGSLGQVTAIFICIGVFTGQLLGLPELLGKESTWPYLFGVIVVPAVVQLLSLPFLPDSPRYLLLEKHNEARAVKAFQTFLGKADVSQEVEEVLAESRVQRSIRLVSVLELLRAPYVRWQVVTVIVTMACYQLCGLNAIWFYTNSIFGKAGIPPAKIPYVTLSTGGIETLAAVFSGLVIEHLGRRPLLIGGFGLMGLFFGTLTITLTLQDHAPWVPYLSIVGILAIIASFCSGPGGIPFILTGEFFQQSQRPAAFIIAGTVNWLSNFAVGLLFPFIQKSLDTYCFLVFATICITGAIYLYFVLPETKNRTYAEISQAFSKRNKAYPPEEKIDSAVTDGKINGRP

One experiment concerns the target human GLUT9 (Homo sapiens (Human), UniProt Q9NRM0). Nature of the experiment: Evaluation of human GLUT9 inhibitory activity ([14C] uric acid uptake in human GLUT9 expressing HEK293T cells transduced with Uricase/Hyper). In kind it is cell-based. Particulars: HEK-293T, 10 μM compound, human GLUT9 stably expressing HEK293T cells, read-out: GLUT9 inhibitory rate at 10 μM of compound. The procedure: A method for measuring GLUT9 inhibitory activity using human GLUT9 expressing cells transduced with Uricase/Hyper is shown hereinafter. GLUT9 inhibitory activity ([…]) of the test compound was calculated based on the intracellular uptake amount of labeled uric acid ([^14C] uric acid) transported by GLUT9.
1. Preparation of Human GLUT9 Expression Plasmid
Human GLUT9S coding region (NM_001001290.1) was amplified by PCR method using PrimeSTAR MAX DNA Polymerase (Takara Bio). The obtained PCR product was subjected to agarose gel electrophoresis, and the desired size of PCR product was purified by QIAquick Gel Extraction Kit (QIAGEN). Next, pEBMulti-Bsd vector (Wako Pure Chemical Industries, Ltd.) was subjected to digestion using restriction enzymes SalI and EcoR V, and linked to the PCR product containing GLUT9S by In-Fusion reaction using In-Fusion HD Cloning Kit (Takara Bio). XL10-Gold Competent Cells (Agilent Technologies) were transformed in In-Fusion reaction solution, and the obtained transfectants were cultured with shaking overnight in LB medium to which Blasticidin S HCl (Thermo Fisher Scientific) was added. Human GLUT9 expression plasmid DNA was prepared from the collected transfectants using EndoFree Plasmid Kit (Takara Bio).
2. Establish of Human GLUT9 Stably Expressing Cell
HEK293T cells (American Type Culture Collection, DS Pharma Biomedical) were seeded in a 6 well plate at 1×10^6 cells/well. Next day, human GLUT9 expression plasmid was transfected by using Lipofectamine 3000 Reagent (Thermo Fisher Scientific) as follows. Lipofectamine 3000 Reagent (5 μL) was diluted with Opti-MEM (125 μL, Thermo Fisher Scientific). Separately, plasmid DNA (2.5 μg) was diluted with Opti-MEM (125 μL), and P3000 Reagent (5 μL) was added thereto. The obtained solution was mixed with the previously obtained diluted solution, and the mixture was left stand at room temperature for 5 min, and added to the cells. Next day, the transfected cells were diluted and reseeded in a 6 well plate at 4×10^5 cells/well, and drug selection was performed in the presence of 30 μg/mL of Blasticidin S HCl, and thereby, Blasticidin-resistant human GLUT9 stably expressing cell line was established. Mock cells were prepared by introducing pEBMulti-Bsd vector into HEK293T cells in a similar manner.
3. Preparation of Uricase/Hyper Expression Plasmid
Uricase/Hyper expression plasmid was prepared by linking the coding regions of Aspergillus Flavus-derived uricase gene and pHyPer-Cyto vector (Evrogen) HyPer gene to the pEBMulti-Hyg vector (Wako Pure Chemical Industries, Ltd.) and then introducing it. The preparation method was performed by reference to Gout and Nucleic Acid Metabolism 2013, 37(2), 93-101, and seven repeated linker sequence of glycine-glycine-glycine-serine was prepared herein.
4. Preparation of Human GLUT9-Uricase/Hyper Coexpressing Cell
Human GLUT9 stably expressing cells were seeded at 3.6×10^7 cells per 225 cm^2 flask. Next day, Uricase/Hyper expression plasmid was transfected by using Lipofectamine 3000 Reagent as follows. Lipofectamine 3000 Reagent (40 μL) was diluted with Opti-MEM (750 μL). Separately, plasmid DNA (20 μg) was diluted with Opti-MEM (750 μL), and P3000 Reagent (40 μL) was added thereto. The obtained solution was mixed with the previously obtained diluted solution, and the mixture was left stand at room temperature for 5 min, and added to the cells. Next day, transfected cells were collected to prepare human GLUT9-Uricase/Hyper coexpressing cells.
5. Evaluation of GLUT9 Inhibitory Activity
Uricase/Hyper transiently-transfected human GLUT9 stably expressing cells or mock cells (blank) were seeded in a 96 well plate (Corning) at 1.6×10^5 cells/well, and cultured overnight at 37° C., 5% CO2. D-MEM/high glucose (Wako Pure Chemical Industries, Ltd.) containing 10% Fetal Bovine Serum (Lifetechnology) and 100 units/ml penicillin/100 μg/ml streptomycin (GIBCO) was used as a medium.
For the compound `CCCCNC(=O)c1cnc(-c2ccc(OC)cc2)c(-c2ccc(C(=O)O)cc2)c1` [Example 76, 4-(5-(butylcarbamoyl)-2-(4-methoxyphenyl)pyridin-3-yl)benzoic Acid Hydrochloride], the inhibition at 10 µM worked out at 10%.

Still in this experiment, the particulars now being: final 300 μM uric acid, 6 min, human GLUT9 stably expressing HEK293T cells, read-out: humans GLUT9 inhibitory activity (IC50 value (μM)).
With `CCCCc1cnc(-c2ccc(OC)cc2)c(-c2ccc(CC(=O)O)c(F)c2)n1` [Example 72], the IC50 is 0.526 µM.

In the case of `CCOCCc1cnc(-c2ccc(OC)cc2)c(-c2ccc(C(=O)O)cc2)c1` [Example 73], the half-inhibitory concentration (IC50) was found to be 0.104 µM.

For `CCCCc1cnc(-c2ccc(OC(F)(F)F)cc2)c(-c2ccc(C(=O)O)cc2)n1` [Example 75], the IC50 amounted to 0.0844 µM.

`CCOCCCc1cnc(-c2ccc(OC)cc2)c(-c2ccc(C(=O)O)cc2)c1` [Example 77]: the IC50 was determined as 0.0585 µM.

Consider `COCc1cnc(-c2ccc(OC)cc2)c(-c2ccc(C(=O)O)cc2)c1` [Example 78], for which the IC50 was 2.21 µM.

As to `CCCCc1cnc(-c2ccc(CCC)cc2)c(-c2ccc(C(=O)O)cc2)n1` [Example 79], the IC50 amounted to 0.369 µM.

On to `CCCCc1cnc(-c2ccc(OC)cc2)c(-c2ccc(C(=O)O)c(C)c2)n1` [Example 83], for which the IC50 was 0.0662 µM.

As to `COCCCc1cnc(-c2ccc(OC)cc2)c(-c2ccc(C(=O)O)cc2)c1` [Example 84, 4-(2-(4-methoxyphenyl)-5-(3-methoxypropyl)pyridin-3-yl)benzoic Acid], the IC50 was 0.117 µM.

Regarding `CCCCc1cnc(-c2ccc(COC)cc2)c(-c2ccc(C(=O)O)cc2)n1` [Example 86], the IC50 turned out to be 1.82 µM.

In the case of `CCCCc1cnc(-c2ccc(CC#N)cc2)c(-c2ccc(C(=O)O)cc2)n1` [Example 87], the IC50 is 1.79 µM.

Turning to `CCCCc1cnc(-c2ccc(C(C)C)cc2)c(-c2ccc(C(=O)O)cc2)n1` [Example 88], the IC50 is 0.928 µM.

Consider `CCCCc1cnc(-c2ccc(C3COC3)cc2)c(-c2ccc(C(=O)O)cc2)n1` [Example 89], for which the IC50 was determined as 1.8 µM.

On to `CCCCc1cnc(-c2ccc(OC)cc2)c(-c2ccc(C(=O)O)c(O)c2)n1` [Example 91], for which the IC50 was found to be 0.247 µM.

For the compound `CCCCc1cnc(-c2ccc(OC)cc2)c(-c2ccc(C(=O)O)c(Cl)c2)n1` [Example 92], the IC50 amounted to 0.181 µM.

For `CCCCc1cnc(-c2ccc(OC)cc2)c(-c2ccc(CCC(=O)O)c(F)c2)n1` [Example 93], the IC50 worked out at 0.184 µM.

For `COCCCc1cnc(-c2cc(F)c(OC)c(F)c2)c(-c2ccc(CCC(=O)O)cc2)c1` [Example 95], the IC50 was determined as 0.0576 µM.

For `COc1ccc(-c2ncc(CC3CC3)cc2-c2ccc(C(=O)O)cc2)cc1` [Example 96], the IC50 was 0.0887 µM.

On to `COCCCc1cnc(-c2cc(F)c(OC)c(F)c2)c(-c2ccc(CCC(=O)O)cc2)n1` [Example 97], for which the IC50 was 0.0795 µM.

Regarding `COc1c(F)cc(-c2ncc(CC(C)C)nc2-c2ccc(C(=O)O)cc2)cc1F` [Example 98], the IC50 worked out at 0.0605 µM.

`COc1c(F)cc(-c2ncc(CC(C)C)cc2-c2ccc(C(=O)O)cc2)cc1F` [Example 99]: the IC50 came out at 0.0514 µM.

Consider `CCCCCCc1cnc(-c2ccc(OC)cc2)c(-c2ccc(C(=O)O)cc2)c1` [Example 100], for which the IC50 stood at 0.082 µM.

For the compound `COc1ccc(-c2ncc(Cc3ccccc3)cc2-c2ccc(C(=O)O)cc2)cc1` [Example 101], the 50% inhibitory concentration (IC50) stood at 0.164 µM.

Take `COCCc1cnc(-c2ccc(OC)cc2)c(-c2ccc(C(=O)O)cc2)c1` [Example 102]: the 50% inhibitory concentration (IC50) is 0.79 µM.

`COc1ccc(-c2ncc(CCc3ccccc3)cc2-c2ccc(C(=O)O)cc2)cc1` [Example 105]: the half-inhibitory concentration (IC50) worked out at 0.453 µM.

Regarding `COCCCc1cnc(-c2ccc(OC)c(F)c2)c(-c2ccc(C(=O)O)cc2)c1` [Example 106], the half-inhibitory concentration (IC50) is 0.101 µM.

Consider `COCCCc1cnc(-c2cc(F)c(OC)c(F)c2)c(-c2ccc(C(=O)O)cc2)c1` [Example 107], for which the IC50 came to 0.0627 µM.

`COCCCc1cnc(-c2ccc(OC)c(F)c2)c(-c2ccc(CCC(=O)O)cc2)c1` [Example 108]: the IC50 turned out to be 0.0712 µM.

`COCCCc1cnc(-c2cc(F)c(OC)c(F)c2)c(-c2ccc(C(=O)O)c(C)c2)n1` [Example 109]: the IC50 is 0.0799 µM.

`CCCCc1cnc(-c2ccc(OC)cc2)c(-c2cc(C)c(C(=O)O)c(C)c2)n1` [Example 110]: the IC50 is 0.265 µM.

`CCCCc1cnc(-c2ccc(OC)cc2)c(-c2ccc(C(=O)O)c(CC)c2)n1` [Example 111]: the IC50 turned out to be 0.0826 µM.

Turning to `COCCCc1cnc(-c2cc(F)c(OC)c(F)c2)c(-c2ccc(C(=O)O)c(F)c2)n1` [Example 112], the IC50 was 0.561 µM.

In the case of `COCCCc1cnc(-c2ccc(OC)c(F)c2)c(-c2ccc(C(=O)O)c(F)c2)n1` [Example 113], the IC50 came to 1 µM.

Turning to `CCCCc1cnc(-c2ccc(OC)cc2)c(-c2ccc(C(=O)O)c(C)c2)c1` [Example 114], the IC50 amounted to 0.0604 µM.

For `COCCCc1cnc(-c2cc(F)c(OC)c(F)c2)c(-c2ccc(C(=O)O)c(C)c2)c1` [Example 115], the IC50 amounted to 0.0497 µM.

Regarding `COCCCc1cnc(-c2ccc(OC)cc2)c(-c2ccc(C(=O)O)c(C)c2)c1` [Example 116, 4-(2-(4-methoxyphenyl)-5-(3-methoxypropyl)pyridin-3-yl)-2-methylbenzoic Acid], the IC50 is 0.0684 µM.

As to `CCOCCc1cnc(-c2cc(F)c(OC)c(F)c2)c(-c2ccc(C(=O)O)cc2)n1` [Example 117], the IC50 was 0.543 µM.

As to `CCCOCc1cnc(-c2ccc(OC)cc2)c(-c2ccc(C(=O)O)cc2)c1` [Example 118, 4-(2-(4-methoxyphenyl)-5-(propoxymethyl)pyridin-3-yl)benzoic Acid], the half-inhibitory concentration (IC50) stood at 0.108 µM.

In the case of `COCCOCCCc1cnc(-c2ccc(OC)cc2)c(-c2ccc(C(=O)O)cc2)c1` [Example 119], the IC50 amounted to 0.501 µM.

For `COCCCc1cnc(-c2ccc(OC)cc2)c(-c2ccc(C(=O)O)c(Cl)c2)c1` [Example 120], the IC50 was 0.539 µM.

For `COCCCc1cnc(-c2cc(F)c(OC)c(F)c2)c(-c2ccc(C(=O)O)c(Cl)c2)n1` [Example 121], the IC50 amounted to 0.501 µM.

As to `COCCCCc1cnc(-c2ccc(OC)cc2)c(-c2ccc(C(=O)O)cc2)c1` [Example 123], the IC50 came out at 0.0589 µM.

With `COCCCCc1cnc(-c2ccc(OC)cc2)c(-c2ccc(C(=O)O)c(Cl)c2)c1` [Example 125], the IC50 was found to be 0.229 µM.

For `COCCCCc1cnc(-c2ccc(OC)cc2)c(-c2ccc(C(=O)O)c(C)c2)c1` [Example 126], the IC50 is 0.0497 µM.

Consider `COCCCCc1cnc(-c2ccc(OC)cc2)c(-c2ccc(CCC(=O)O)cc2)c1` [Example 127], for which the IC50 turned out to be 0.0688 µM.

For the compound `COCCCCc1cnc(-c2cc(F)c(OC)c(F)c2)c(-c2ccc(C(=O)O)cc2)c1` [Example 129], the IC50 amounted to 0.0569 µM.

On to `COCCCCc1cnc(-c2cc(F)c(OC)c(F)c2)c(-c2ccc(C(=O)O)c(C)c2)c1` [Example 130], for which the IC50 was 0.0521 µM.

As for `COCCCCc1cnc(-c2cc(F)c(OC)c(F)c2)c(-c2ccc(C(=O)O)c(Cl)c2)c1` [Example 131], the concentration for half-maximal inhibition (IC50) was 0.155 µM.

Take `COCCCCc1cnc(-c2cc(F)c(OC)c(F)c2)c(-c2ccc(CCC(=O)O)cc2)c1` [Example 132]: the 50% inhibitory concentration (IC50) stood at 0.0519 µM.

Take `CCOCCc1cnc(-c2cc(F)c(OC)c(F)c2)c(-c2ccc(C(=O)O)c(C)c2)n1` [Example 133]: the half-inhibitory concentration (IC50) came out at 0.313 µM.

In the case of `CCOCCc1cnc(-c2cc(F)c(OC)c(F)c2)c(-c2ccc(CCC(=O)O)cc2)n1` [Example 134], the IC50 was 0.525 µM.

Consider `COCCCCc1cnc(-c2cc(F)c(OC)c(F)c2)c(-c2ccc(C(=O)O)c(C)c2)n1` [Example 135], for which the IC50 worked out at 0.0613 µM.

These data come from patent US10752596B2, “Nitrogen-containing heteroaryl compound and pharmaceutical use thereof” (JAPAN TOBACCO INC., priority 2017, dated 2020).
